How the values were obtained:
[1] = Reversibility of SSip-1 (in vitro assay in the presence of 5 mM of GSH); settings: 1 μM probe, pH 7.4, 5 mM GSH
Experimental: Reversibility of SSip-1 (In Vitro Assay in the Presence of 5 mM of GSH)
The existence of a response to sulfane sulfur was studied in the presence of 5 mM of GSH, which is the GSH concentration in cells (FIG. 4).
(§1) The excitation wavelength was 470 nm.

[2] = Selectivity with H2S (addition of NaHS); settings: 0.1 μm of SSip-1, pH 7.4, 300 μM GSH, 50 μM NaHS, excitation 470 nm
Excerpt: as §1

A549 cells = experiment: Live cell imaging (confocal microscope) with Na2S4 added; type: cell-based
Experimental: The SSip-1 DA was introduced into A549 cells, and 500 μM of Na2S4 was added outside the cells under a microscope. The A549 cells were incubated for three hours by 10 μM of SSip-1 DA (containing 0.0003% Purulonic and 1% DMSO as a co-solvent). The excitation wavelength was 488 nm, and the emission wavelengths were 500-570 nm and 590-650 nm. […]

cells = experiment: Localization in cells, co-staining with Lysotracker or Mitotracker; type: cell-based
Experimental: The localization in cells was studied using compound a3. […] The cells were incubated for one hour by 10 μM of compound a3 and 50 nM of Lysotracker Deep red or 200 nM of Mitotracker Deep red in DMEM (containing 0.03% Purulonic and 0.1% DMSO as a co-solvent). Ex/Em=488 nm (laser intensity 20%)/500-540 nm (PMT1000) and 650 nm/670-700 nm (PMT600)

[3] = Absorption and fluorescence spectra of the probe after addition of Na2S4 in buffer; settings: 1 μM probe, 0.1 M sodium phosphate buffer pH 7.4, 300 μM GSH
Experimental: Na2S4 was added to compound 8 synthesized as described above, and the absorption spectrum (UV-1650PC, Shimadzu) and fluorescence spectrum (F-4500, Hitachi) were measured.
as §1
Na2S4 was added to the synthesized compound a1, compound a2, and compound 25, which was obtained by deprotecting compound a4, and the absorption and fluorescence spectra were measured.

[4] = A549 cells incubated 3 h with 10 μM SSip-1 DA, 500 μM Na2S4 added, excitation 488 nm

## SSip-1
[1]; 50 μM Na2S4, excitation 470 nm
  fluorescence after addition of Na2S4: the fluorescence rose after addition of Na2S4
[1]; Na2S4 added again
  reversibility (fluorescence on repeated Na2S4 addition): showing reversibility
[2]
  rise in fluorescence intensity with H2S donor: virtually no rise in fluorescence intensity
A549 cells; [4]
  intensity of the fluorescein-derived fluorescence wavelength region (500-570 nm): increased
  intensity of the rhodamine-derived fluorescence wavelength region (590-650 nm): decreased slightly
A549 cells; A549 live cells, after washout of 250 μM Na2S4
  time for fluorescence to decrease after washout: about 20 minutes
A549 cells; A549 live cells, repeated addition of 250 μM Na2S4
  time for fluorescence to rise after Na2S4 addition: within one minute
cells; cells incubated 1 h with 10 μM compound a3 and 50 nM Lysotracker Deep red or 200 nM Mitotracker Deep red in DMEM
  merging with Lysotracker and Mitotracker: did not merge with Lysotracker and Mitotracker
cells; in comparison to the localization when only SSip-1 was loaded
  localization in cells: localized in the mitochondria
[3]; after 50 μM Na2S4
  change in absorbance on the rhodamine side: decrease in absorbance on the rhodamine side
[3]; after 50 μM Na2S4, excitation 470 nm
  rise in fluorescence intensity: approximately 10 fold
